Data as given in ChEMBL document CHEMBL4043290, “Structure-based Design of Pyridone-Aminal eFT508 Targeting Dysregulated Translation by Selective Mitogen-activated Protein Kinase Interacting Kinases 1 and 2 (MNK1/2) Inhibition” (J Med Chem, 2018).

Experiments:
[1] = molecular target: Vascular endothelial growth factor receptor 2 (Homo sapiens) (UniProt P35968); assay: Inhibition of KDR (unknown origin) at 1 uM relative to control
[2] = molecular target: Proto-oncogene tyrosine-protein kinase receptor Ret (Homo sapiens) (UniProt P07949); assay: Inhibition of RET (unknown origin) at 1 uM relative to control
Sequence of Proto-oncogene tyrosine-protein kinase receptor Ret (Homo sapiens) (P07949 whole entry): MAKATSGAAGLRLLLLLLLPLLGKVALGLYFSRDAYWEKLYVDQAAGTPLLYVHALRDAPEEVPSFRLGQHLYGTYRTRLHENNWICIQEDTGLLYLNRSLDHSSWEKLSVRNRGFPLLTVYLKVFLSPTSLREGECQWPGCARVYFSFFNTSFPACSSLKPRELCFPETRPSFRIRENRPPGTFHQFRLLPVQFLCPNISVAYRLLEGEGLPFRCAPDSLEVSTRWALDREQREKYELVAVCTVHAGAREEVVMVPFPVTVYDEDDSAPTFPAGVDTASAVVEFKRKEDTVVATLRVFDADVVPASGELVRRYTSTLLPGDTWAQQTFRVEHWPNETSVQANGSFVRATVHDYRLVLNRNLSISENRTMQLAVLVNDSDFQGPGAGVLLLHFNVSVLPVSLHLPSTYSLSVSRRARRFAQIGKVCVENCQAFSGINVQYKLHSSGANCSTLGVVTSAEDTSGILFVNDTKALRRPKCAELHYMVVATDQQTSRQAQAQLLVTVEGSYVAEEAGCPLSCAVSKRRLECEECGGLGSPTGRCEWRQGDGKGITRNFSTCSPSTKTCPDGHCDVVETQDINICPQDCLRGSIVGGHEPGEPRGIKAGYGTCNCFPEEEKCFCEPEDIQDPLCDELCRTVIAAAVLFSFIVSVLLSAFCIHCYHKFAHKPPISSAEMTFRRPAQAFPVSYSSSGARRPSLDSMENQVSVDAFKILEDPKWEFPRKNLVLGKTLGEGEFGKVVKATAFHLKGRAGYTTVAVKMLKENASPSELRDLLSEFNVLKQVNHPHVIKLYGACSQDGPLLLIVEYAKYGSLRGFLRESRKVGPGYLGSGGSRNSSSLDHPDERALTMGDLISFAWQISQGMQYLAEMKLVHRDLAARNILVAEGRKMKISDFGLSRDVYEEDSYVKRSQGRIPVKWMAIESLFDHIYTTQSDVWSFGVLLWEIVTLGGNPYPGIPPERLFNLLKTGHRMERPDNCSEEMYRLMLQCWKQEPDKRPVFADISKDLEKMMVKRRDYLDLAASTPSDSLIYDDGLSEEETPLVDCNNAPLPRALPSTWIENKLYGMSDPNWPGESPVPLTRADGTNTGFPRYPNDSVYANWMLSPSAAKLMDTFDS

[3] = Metabolic stability in mouse liver microsomes assessed as parent compound remaining at 1 uM after 30 mins by LC-ESI-TOF/MS method; type: ADME, microsome; conditions: read-out: Stability
[4] = Metabolic stability in rat liver microsomes assessed as parent compound remaining at 1 uM after 30 mins by LC-ESI-TOF/MS method; type: ADME, microsome; conditions: read-out: Stability
[5] = Metabolic stability in human liver microsomes assessed as parent compound remaining at 1 uM after 30 mins by LC-ESI-TOF/MS method; type: ADME, microsome; conditions: read-out: Stability
[6] = Oral bioavailability in Balb/c mouse at 10 mg/kg by LC-ESI-TOF/MS or LC-ESI-MS/MS method; type: ADME, organism-based; conditions: in vivo
[7] = Oral bioavailability in Sprague-Dawley rat at 10 mg/kg by LC-ESI-TOF/MS or LC-ESI-MS/MS method; type: ADME, organism-based; conditions: in vivo
[8] = Oral bioavailability in Beagle dog at 5 mg/kg by LC-ESI-TOF/MS or LC-ESI-MS/MS method; type: ADME, organism-based, Canis lupus familiaris; conditions: in vivo
[9] = Oral bioavailability in cynomolgus monkey at 5 mg/kg by LC-ESI-TOF/MS or LC-ESI-MS/MS method; type: ADME, organism-based, Macaca fascicularis; conditions: in vivo
[10] = molecular target: T1, Serine/threonine-protein kinase 17A (Homo sapiens) (UniProt Q9UEE5); assay: Inhibition of DRAK1 (unknown origin) at 1 uM relative to control
T1 sequence (whole entry): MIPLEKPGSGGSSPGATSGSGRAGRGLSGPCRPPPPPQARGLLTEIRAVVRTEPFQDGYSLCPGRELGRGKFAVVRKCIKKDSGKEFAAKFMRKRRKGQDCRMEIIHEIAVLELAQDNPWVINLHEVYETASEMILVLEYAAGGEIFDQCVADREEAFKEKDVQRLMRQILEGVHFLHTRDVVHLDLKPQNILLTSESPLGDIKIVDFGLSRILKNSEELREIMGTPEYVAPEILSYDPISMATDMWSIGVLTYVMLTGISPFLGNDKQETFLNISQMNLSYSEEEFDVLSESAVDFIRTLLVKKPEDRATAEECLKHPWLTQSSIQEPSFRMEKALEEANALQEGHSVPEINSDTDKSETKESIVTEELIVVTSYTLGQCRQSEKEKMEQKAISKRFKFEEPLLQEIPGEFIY

[11] = molecular target: Serine/threonine-protein kinase 17B (Homo sapiens) (UniProt O94768); assay: Inhibition of DRAK2 (unknown origin) at 1 uM relative to control
Sequence of Serine/threonine-protein kinase 17B (Homo sapiens) (O94768 whole entry): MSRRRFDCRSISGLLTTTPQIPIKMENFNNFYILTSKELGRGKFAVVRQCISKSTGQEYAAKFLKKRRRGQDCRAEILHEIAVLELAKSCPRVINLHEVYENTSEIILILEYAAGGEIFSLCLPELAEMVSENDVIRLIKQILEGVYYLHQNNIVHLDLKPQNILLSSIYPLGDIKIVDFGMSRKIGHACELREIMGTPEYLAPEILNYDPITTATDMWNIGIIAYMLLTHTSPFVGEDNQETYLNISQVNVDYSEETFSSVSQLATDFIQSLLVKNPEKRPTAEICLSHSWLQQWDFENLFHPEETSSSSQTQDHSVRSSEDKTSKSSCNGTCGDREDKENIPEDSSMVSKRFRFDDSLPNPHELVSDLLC

[12] = molecular target: Dual specificity protein kinase CLK4 (Homo sapiens, UniProt Q9HAZ1); assay: Inhibition of CLK4 (unknown origin) at 1 uM relative to control
Sequence of Dual specificity protein kinase CLK4 (Q9HAZ1 whole entry, looked up): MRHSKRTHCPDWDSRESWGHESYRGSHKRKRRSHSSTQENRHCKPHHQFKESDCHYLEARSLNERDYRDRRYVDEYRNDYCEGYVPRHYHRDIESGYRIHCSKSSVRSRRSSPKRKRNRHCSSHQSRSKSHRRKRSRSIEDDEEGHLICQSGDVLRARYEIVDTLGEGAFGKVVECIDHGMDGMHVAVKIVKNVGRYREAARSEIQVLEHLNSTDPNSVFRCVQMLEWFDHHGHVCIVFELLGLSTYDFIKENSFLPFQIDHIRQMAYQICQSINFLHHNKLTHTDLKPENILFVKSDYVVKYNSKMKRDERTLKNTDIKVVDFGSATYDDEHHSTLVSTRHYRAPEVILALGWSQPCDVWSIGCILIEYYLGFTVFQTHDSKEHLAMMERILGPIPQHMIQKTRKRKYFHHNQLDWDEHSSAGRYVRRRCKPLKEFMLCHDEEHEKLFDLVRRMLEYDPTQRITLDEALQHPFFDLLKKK

[13] = molecular target: Leucine-rich repeat serine/threonine-protein kinase 2 (Homo sapiens) (UniProt Q5S007); assay: Inhibition of LRRK2 (unknown origin) at 1 uM relative to control
Sequence of Leucine-rich repeat serine/threonine-protein kinase 2 (Homo sapiens) (Q5S007 whole entry): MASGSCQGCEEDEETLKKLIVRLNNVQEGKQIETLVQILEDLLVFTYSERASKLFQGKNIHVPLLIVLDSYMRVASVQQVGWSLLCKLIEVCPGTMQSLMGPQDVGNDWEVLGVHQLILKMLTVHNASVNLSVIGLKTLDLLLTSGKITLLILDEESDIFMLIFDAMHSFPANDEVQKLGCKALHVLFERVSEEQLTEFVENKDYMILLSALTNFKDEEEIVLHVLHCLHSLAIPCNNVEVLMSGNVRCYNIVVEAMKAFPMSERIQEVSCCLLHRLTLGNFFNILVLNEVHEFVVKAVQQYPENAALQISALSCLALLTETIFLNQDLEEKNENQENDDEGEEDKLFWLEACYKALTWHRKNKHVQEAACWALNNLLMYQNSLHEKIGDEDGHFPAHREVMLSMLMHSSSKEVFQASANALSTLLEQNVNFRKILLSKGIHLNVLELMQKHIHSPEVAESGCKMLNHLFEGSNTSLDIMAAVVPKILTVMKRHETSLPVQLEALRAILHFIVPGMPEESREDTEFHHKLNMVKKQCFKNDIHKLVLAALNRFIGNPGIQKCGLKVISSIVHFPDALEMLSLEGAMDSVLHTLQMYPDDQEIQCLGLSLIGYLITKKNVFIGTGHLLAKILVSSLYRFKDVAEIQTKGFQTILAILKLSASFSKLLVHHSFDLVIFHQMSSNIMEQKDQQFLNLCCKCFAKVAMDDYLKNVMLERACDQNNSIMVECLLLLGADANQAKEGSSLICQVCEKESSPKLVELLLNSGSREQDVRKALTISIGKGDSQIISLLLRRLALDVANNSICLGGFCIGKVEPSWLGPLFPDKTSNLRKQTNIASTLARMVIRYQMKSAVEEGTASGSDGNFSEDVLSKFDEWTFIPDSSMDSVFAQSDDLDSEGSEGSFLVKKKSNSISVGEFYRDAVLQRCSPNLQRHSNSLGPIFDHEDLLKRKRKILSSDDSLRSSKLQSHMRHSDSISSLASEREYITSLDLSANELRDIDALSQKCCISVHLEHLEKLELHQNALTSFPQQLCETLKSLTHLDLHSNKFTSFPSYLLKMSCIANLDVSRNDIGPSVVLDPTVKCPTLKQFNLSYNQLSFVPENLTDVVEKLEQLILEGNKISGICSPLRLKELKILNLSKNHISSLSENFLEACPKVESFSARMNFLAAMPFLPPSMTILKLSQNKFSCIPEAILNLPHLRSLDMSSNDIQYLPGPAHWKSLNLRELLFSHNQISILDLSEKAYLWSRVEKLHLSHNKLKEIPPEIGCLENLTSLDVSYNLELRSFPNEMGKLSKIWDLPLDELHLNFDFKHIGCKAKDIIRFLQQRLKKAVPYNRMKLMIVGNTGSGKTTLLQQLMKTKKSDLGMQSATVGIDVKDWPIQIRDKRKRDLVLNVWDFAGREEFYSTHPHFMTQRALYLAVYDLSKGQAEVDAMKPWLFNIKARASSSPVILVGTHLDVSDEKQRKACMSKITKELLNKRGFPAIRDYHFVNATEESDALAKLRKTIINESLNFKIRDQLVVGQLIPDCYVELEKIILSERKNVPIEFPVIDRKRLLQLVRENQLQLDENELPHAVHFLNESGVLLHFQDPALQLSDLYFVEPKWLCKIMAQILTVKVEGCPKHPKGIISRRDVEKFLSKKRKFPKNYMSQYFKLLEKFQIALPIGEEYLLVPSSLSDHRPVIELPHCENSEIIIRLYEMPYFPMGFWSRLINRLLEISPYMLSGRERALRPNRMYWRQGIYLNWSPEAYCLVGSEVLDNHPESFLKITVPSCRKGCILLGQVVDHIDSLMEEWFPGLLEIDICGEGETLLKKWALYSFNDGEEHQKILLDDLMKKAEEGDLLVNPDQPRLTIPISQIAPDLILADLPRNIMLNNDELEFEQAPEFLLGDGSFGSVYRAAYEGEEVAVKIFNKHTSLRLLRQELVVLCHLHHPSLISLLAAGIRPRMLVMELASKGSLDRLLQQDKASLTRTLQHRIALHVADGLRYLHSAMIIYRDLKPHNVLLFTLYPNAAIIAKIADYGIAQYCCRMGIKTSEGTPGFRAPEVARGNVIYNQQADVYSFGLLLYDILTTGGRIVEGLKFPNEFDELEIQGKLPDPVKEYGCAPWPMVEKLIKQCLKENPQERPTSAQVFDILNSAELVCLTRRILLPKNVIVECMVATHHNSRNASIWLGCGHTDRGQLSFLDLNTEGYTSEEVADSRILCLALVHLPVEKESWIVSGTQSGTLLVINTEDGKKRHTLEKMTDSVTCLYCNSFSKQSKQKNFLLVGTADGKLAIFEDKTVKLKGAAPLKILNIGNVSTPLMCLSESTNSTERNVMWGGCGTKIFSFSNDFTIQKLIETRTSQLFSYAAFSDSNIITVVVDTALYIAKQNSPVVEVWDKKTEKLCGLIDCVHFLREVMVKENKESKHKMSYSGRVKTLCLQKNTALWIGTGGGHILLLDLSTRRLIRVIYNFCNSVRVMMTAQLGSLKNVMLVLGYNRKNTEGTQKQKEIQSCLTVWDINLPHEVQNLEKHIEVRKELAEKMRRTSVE

[14] = molecular target: Receptor-interacting serine/threonine-protein kinase 2 (Homo sapiens) (UniProt O43353); assay: Inhibition of RIPK2 (unknown origin) at 1 uM relative to control
[15] = molecular target: TGF-beta receptor type-2 (Homo sapiens) (UniProt P37173); assay: Inhibition of TGFBR2 (unknown origin) at 1 uM relative to control
[16] = molecular target: Dual specificity tyrosine-phosphorylation-regulated kinase 3 (Homo sapiens) (UniProt O43781); assay: Inhibition of DYRK3 (unknown origin) at 1 uM relative to control
Sequence of Dual specificity tyrosine-phosphorylation-regulated kinase 3 (Homo sapiens) (O43781 whole entry): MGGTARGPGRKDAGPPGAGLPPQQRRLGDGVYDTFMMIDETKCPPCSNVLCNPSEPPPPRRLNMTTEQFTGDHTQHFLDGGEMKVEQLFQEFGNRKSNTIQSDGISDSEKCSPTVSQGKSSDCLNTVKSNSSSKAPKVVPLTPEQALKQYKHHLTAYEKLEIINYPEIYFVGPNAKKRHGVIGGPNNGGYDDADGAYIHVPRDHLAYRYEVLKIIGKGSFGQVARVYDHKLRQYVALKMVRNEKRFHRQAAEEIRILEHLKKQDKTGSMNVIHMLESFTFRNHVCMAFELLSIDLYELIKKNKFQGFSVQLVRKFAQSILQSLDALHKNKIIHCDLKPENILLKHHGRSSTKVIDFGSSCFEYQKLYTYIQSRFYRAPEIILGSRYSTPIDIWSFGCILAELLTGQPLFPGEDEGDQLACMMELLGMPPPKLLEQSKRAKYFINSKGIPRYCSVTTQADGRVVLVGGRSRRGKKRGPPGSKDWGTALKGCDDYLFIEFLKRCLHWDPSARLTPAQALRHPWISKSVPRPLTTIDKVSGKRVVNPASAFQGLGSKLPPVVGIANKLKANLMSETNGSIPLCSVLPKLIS

[17] = molecular target: T2, Serine/threonine-protein kinase BRSK1 (Homo sapiens) (UniProt Q8TDC3); assay: Inhibition of BRSK1 (unknown origin) at 1 uM relative to control
T2 sequence (whole entry): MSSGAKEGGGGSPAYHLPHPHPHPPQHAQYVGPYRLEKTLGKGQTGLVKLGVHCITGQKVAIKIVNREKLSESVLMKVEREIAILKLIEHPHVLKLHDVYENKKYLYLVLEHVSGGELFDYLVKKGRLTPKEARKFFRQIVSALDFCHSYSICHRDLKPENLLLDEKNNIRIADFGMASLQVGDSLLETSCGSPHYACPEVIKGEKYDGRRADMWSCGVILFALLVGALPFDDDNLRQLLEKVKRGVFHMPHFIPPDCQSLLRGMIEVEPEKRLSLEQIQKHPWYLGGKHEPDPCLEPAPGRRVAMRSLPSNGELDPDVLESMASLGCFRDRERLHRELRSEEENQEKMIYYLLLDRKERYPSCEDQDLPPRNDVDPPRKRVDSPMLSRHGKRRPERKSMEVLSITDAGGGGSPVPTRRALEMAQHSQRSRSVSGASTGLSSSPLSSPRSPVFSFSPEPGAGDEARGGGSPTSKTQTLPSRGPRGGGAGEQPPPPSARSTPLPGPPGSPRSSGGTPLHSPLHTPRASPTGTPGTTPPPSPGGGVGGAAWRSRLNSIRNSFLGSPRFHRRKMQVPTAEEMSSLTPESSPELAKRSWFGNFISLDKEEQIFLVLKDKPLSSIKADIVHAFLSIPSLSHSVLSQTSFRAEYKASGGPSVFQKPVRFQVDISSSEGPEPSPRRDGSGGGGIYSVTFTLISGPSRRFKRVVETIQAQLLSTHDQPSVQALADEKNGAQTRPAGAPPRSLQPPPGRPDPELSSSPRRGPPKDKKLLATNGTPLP

physchem = conditions: octanol/water
in vitro = conditions: human, Caco-2
[18] = molecular target: Platelet-derived growth factor receptor alpha (Homo sapiens) (UniProt P16234); assay: Inhibition of PDGFRA (unknown origin) at 1 uM relative to control
[19] = molecular target: Receptor-type tyrosine-protein kinase FLT3 (Homo sapiens) (UniProt P36888); assay: Inhibition of FLT3 (unknown origin) at 1 uM relative to control
[20] = Oral bioavailability in Beagle dog at 3 mg/kg by LC-ESI-TOF/MS or LC-ESI-MS/MS method; type: ADME, organism-based, Canis lupus familiaris; conditions: in vivo
[21] = Oral bioavailability in cynomolgus monkey at 3 mg/kg by LC-ESI-TOF/MS or LC-ESI-MS/MS method; type: ADME, organism-based, Macaca fascicularis; conditions: in vivo
[22] = molecular target: Dual specificity tyrosine-phosphorylation-regulated kinase 2 (Homo sapiens) (UniProt Q92630); assay: Inhibition of DYRK2 (unknown origin) at 1 uM relative to control
[23] = molecular target: Vascular endothelial growth factor receptor 3 (Homo sapiens) (UniProt P35916); assay: Inhibition of FLT4 (unknown origin) at 1 uM relative to control
[24] = molecular target: Tyrosine-protein kinase Fgr (Homo sapiens) (UniProt P09769); assay: Inhibition of FGR (unknown origin) at 1 uM relative to control
[25] = molecular target: Ribosomal protein S6 kinase alpha-6 (Homo sapiens) (UniProt Q9UK32); assay: Inhibition of RSK4 (unknown origin) at 1 uM relative to control
[26] = molecular target: MAP kinase-activated protein kinase 3 (Homo sapiens) (UniProt Q16644); assay: Inhibition of MAPKAPK3 (unknown origin) at 1 uM relative to control
[27] = molecular target: MAP kinase-interacting serine/threonine-protein kinase 1 (Homo sapiens, UniProt Q9BUB5)

SMILES	inhibition [1]	inhibition [2]	remaining at 0.5 h, 1 µM [3]	remaining at 0.5 h, 1 µM [4]	remaining at 0.5 h, 1 µM [5]	bioavailability [6]	bioavailability [7]	inhibition [10]	inhibition [11]	inhibition [12]	inhibition [13]	inhibition [15]	inhibition [16]	inhibition [17]	logP (physchem)	Papp A→B at 2 h, 5 µM (in vitro)	also measured
Nc1cc(Nc2cc(Cl)c3n(c2=O)C2(CCCCC2)NC3=O)ncn1	71%	55%	73%	69%	89%	58%	28%	96%	82%	75%	59%	57%	56%	55%	3.2	4.2 ×10⁻⁶ cm/s	bioavailability [8]: > 100%; bioavailability [9]: 50%; inhibition [14]: 59%
Nc1cc(Nc2cc(Cl)c3n(c2=O)C2(CCCC2)NC3=O)ncn1	96%	87%	71%	73%	85%	80%	69%	95%	82%	75%	52%	74%	67%	58%	2.4	1.2 ×10⁻⁶ cm/s	inhibition [18]: 55%; inhibition [19]: 55%; bioavailability [20]: > 100%; bioavailability [21]: 51%; inhibition [22]: 81%; inhibition [23]: 89%; inhibition [24]: 60%; inhibition [25]: 58%; inhibition [26]: 54%; IC50 [27]: 0.88 nM
